Assay results reported in patent US12049518B2, “Pharmacokinetics and cholecystokinin-2 receptor (CCK2R) targeting for diagnosis and therapy” (Medizinische Universitat Innsbruck, priority 2017, dated 2024).
Where two headings read alike, the source gives them in different places. One block for each compound: values may come before it. Where a SMILES comes first, the peptide text is derived from it. [ ]: non-standard residue; d: D form. The star is where a group is joined. DOTA = O=C(O)CN1CCN(CC(=O)O)CCN(CC(=O)*)CCN(CC(=O)O)CC1; 1Nal = N[C@@H](Cc1cccc2ccccc12)C(=O)O; NMeNle = CCCC[C@H](NC)C(=O)O

Key:
human CCK2R = target: T1, human CCK2R (Homo sapiens, UniProt P32239); assay: CCK2R competition binding assay against [125I]Tyr12-gastrin-I on A431-CCK2R cells
T1 construct: expressed in transfected cells; host or cells: A431 human epidermoid carcinoma cells (A431-CCK2R), plasmid pCR3.1, provided by Dr. Luigi Aloj
T1 sequence (P32239 1-447): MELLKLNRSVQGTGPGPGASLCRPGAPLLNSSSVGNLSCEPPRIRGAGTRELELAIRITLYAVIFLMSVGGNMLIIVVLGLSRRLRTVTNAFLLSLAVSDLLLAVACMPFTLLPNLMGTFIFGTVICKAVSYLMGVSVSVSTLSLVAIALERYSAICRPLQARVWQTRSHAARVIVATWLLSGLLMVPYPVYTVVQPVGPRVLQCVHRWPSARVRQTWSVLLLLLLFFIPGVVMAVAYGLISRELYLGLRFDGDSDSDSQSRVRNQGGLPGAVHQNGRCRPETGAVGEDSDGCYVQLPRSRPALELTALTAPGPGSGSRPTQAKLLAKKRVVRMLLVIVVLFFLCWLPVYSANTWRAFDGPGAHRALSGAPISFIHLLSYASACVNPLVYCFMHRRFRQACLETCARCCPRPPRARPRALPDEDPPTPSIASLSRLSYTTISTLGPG
Protocol: Affinity for CCK2R was studied in A431 human epidermoid carcinoma cells stably transfected with the plasmid pCR3.1 containing the full coding sequence for the human CCK2R (A431-CCK2R) kindly provided by Dr. Luigi Aloj (Aloj L et al., J Nucl Med 2004, 45: 485-494). […] Radioiodination of gastrin-1 was carried out using the chloramine-T method. Non-carrier-added [^125I-Tyr^12]gastrind was obtained by HPLC purification and stored in aliquots at −20° C. Binding assays were carried out in 96-well filter plates (MultiScreenHTS-FB, Merck Group, Darmstadt, Germany) pretreated with 10 mM TRIS/139 mM NaCl pH 7.4 (2×250 μl). For the assay a number of 200,000-400,000 A431-CCK2R cells per well was prepared in 35 mM HEPES buffer pH 7.4 containing 10 mM MgCl2, 14 μM bacitracin and 0.5% BSA (a hypotonic solution disturbing the integrity of the cell membranes). The cells were incubated in triplicates with increasing concentrations of the peptidomimetics (0.0003 to 10,000 nM, for example 0.001 to 1000 nM) and [^125I-Tyr^12]gastrin-I (20,000-60,000 cpm) for 1 h at RT. Incubation was interrupted by filtration of the medium and rapid rinsing with ice-cold 10 mM TRIS/139 mM NaCl pH 7.4 (2×200 μl) and the filters were counted in the gamma-counter. Half maximal inhibitory concentration (IC50) values were calculated following nonlinear regression with Origin software (Microcal Origin 6.1, Northampton, MA) and a representative assay was chosen for comparison.

[1] = cited from earlier work
[2] = biodistribution: uptake in normal tissues; format: in vivo, athymic BALB/c nude mice
Protocol: Biodistribution studies evaluating the tumour uptake of the radiolabelled inventive CCK2R targeting peptide analogues were performed in 7-week-old female athymic BALB/c nude mice (Charles River, Sulzfeld, Germany). All animal experiments were conducted in compliance with the Austrian animal protection laws and with the approval of the Austrian Ministry of Science. For the induction of tumour xenografts, A431-CCK2R and A431-mock cells were injected subcutaneously in the right and left flank respectively (2 million cells in 200 μl). When tumours had reached a size of approximately 0.2 ml biodistribution studies were carried out. Groups of 4 mice were injected intravenously via a lateral tail vein with the peptidomimetics of the present invention, labelled with ^111In (approximately 0.2 MBq and 0.02 nmol peptidomimetic), with ^68Ga (approximately 0.8 MBq and 0.02-0.03 nmol peptidomimetic), with ^177Lu (approximately 0.5 MBq and 0.02 nmol peptidomimetic) or with ^99mTc (approximately 0.3 MBq and 0.02 nmol peptidomimetic). After a time period of 1 or 4 h post-injection (p.i.) the animals were sacrificed by cervical dislocation, tumours and other tissues (blood, lung, heart, muscle, bone, spleen, intestine, liver, kidneys, stomach, pancreas) were removed, weighed, and their radioactivity measured in the gamma counter. Results were expressed as percentage of injected activity per gram tissue (% IA/g) and tumour to organ activity ratios were calculated from the activity measured in the dissected tissues. In FIG. 4 the results of the biodistribution studies at 4 h p.i. are summarized for the ^111In-labelled peptidomimetics of the present invention in comparison with ^111In-DOTA-MGS1 and ^111In-DOTA-MGS4 (Klingler M et al., Eur J Nucl Med Mol Imaging 2017, 44: S228). In FIG. 5 the results for the model peptidomimetics of the present invention, DOTA-MGS5 and HYNIC-MGS5, radiolabelled with different radiometals are shown for different time points of 1 or 4 h p.i. […] The uptake in A431-mock tumour xenografts with values <1% IA/g was very low confirming the high receptor-specific tumour uptake. […] A combination of high stability and increased protein binding in vivo seems therefore to result in an optimal protection of the radioligand against enzymatic degradation in blood allowing reaching an extremely high tumour uptake.

serum proteins = assay: protein binding to serum proteins (Sephadex G-50 size-exclusion chromatography); format: in vitro ADME; details: 37° C.; for fraction unbound at 4 h, 500 pmol/mL / fraction unbound at 24 h, 500 pmol/mL: fresh human serum; for fraction unbound at 4 h, 500 pmol/mL: read-out: Percentage of radioligand bound to serum proteins after 4 h incubation (converted); for fraction unbound at 24 h, 500 pmol/mL: read-out: Percentage of radioligand bound to serum proteins after 24 h incubation (converted); for Percentage of radioligand bound to serum proteins after 24 h incubation: human serum
Protocol: Additionally, protein binding to serum proteins was investigated. For this purpose the ^111In-labelled peptidomimetics were incubated in duplicates in fresh human serum at 37° C. (500 pmol/mL) and analyzed after 4 and 24 h by Sephadex G-50 size-exclusion chromatography (GE Healthcare Illustra, Little Chalfont, UK). The percentage of protein binding was determined by measuring the column and the eluate in a 2480 Wizard 2 automatic gamma-counter (Perkin Elmer Life Sciences and Analytical Sciences, Turku, F).

[3] = in vivo, Nock et al. 2014; cited from earlier work
[4] = stability in vivo (radio-HPLC of blood sample); details: BALB/c mice, i.v., 10 min p.i.
Protocol: To further characterise the stability of the radiolabelled peptidomimetics in vivo, metabolic studies were carried out in 5-6-week-old female BALB/c mice (Charles River, Sulzfeld, Germany) injected intravenously with the ^111In- and […] peptidomimetics. All animal experiments were conducted in compliance with the Austrian animal protection laws and with the approval of the Austrian Ministry of Science. To allow monitoring of the metabolites by radio-HPLC, mice were injected with a higher amount of radioactivity (5-15 MBq ^111In and 20-40 MBq ^177Lu, corresponding to 1-2 nmol total peptide) through a lateral tail vein and euthanized by cervical dislocation 10 or 30 min post injection (p.i.). A sample of blood was collected and the degradation was assessed by radio-HPLC.

[5] = displacement of [125I]Tyr12-gastrin-I, A431-CCK2R cells, 1 h at RT, read-out: IC50
[6] = female, athymic BALB/c nude, mouse, kidneys, iv, total radioactivity, 1 or 4 h p.i. (111In-labelled series: 4 h p.i.), read-out: kidney uptake
[7] = CCK2R expressing organ, 1 or 4 h p.i.

Structure (SMILES): CSCC[C@H](NC(=O)[C@H](Cc1c[nH]c2ccccc12)NC(=O)CNC(=O)[C@H](Cc1ccc(O)cc1)NC(=O)[C@H](C)NC(=O)[C@@H](CCC(=O)O)NC(=O)CN1CCN(CC(=O)O)CCN(CC(=O)O)CCN(CC(=O)O)CC1)C(=O)N[C@@H](CC(=O)O)C(=O)N[C@@H](Cc1ccccc1)C(N)=O [DOTA-MG11, [1,4,7,10-tetraazacyclodocecan-1,4,7,10-tetraacetic acid^0,D-Glu^1,DesGlu^2-6]minigastrin, reference compound] ({DOTA}-[dE]AYGWMDF-NH2)
IC50 (human CCK2R; [5]): 0.9 ± 0.5 nM
biological half-life in vivo [1]: below five

Structure (SMILES): CCCC[C@@H](C(=O)N[C@@H](CC(=O)O)C(=O)N[C@@H](Cc1cccc2ccccc12)C(N)=O)N(C)C(=O)[C@H](Cc1c[nH]c2ccccc12)NC(=O)CNC(=O)[C@H](Cc1ccc(O)cc1)NC(=O)[C@H](C)NC(=O)[C@@H](CCC(=O)O)NC(=O)CN1CCN(CC(=O)O)CCN(CC(=O)O)CCN(CC(=O)O)CC1 [DOTA-MGS5, DOTA-DGlu-Ala-Tyr-Gly-Trp-(N-Me)Nle-Asp-1Nal-NH2]
IC50 (human CCK2R; [5]): 0.4 ± 0.2 nM
tissue uptake [2, 6]: 4 to 6 %ID/g
tissue uptake ([2]; female, athymic BALB/c nude, mouse, pancreas, iv, total radioactivity, CCK2R expressing organ, 1 or 4 h p.i., read-out: uptake in pancreas): 2 to 3 %ID/g
tissue uptake ([2]; female, athymic BALB/c nude, mouse, stomach, iv, total radioactivity, CCK2R expressing organ, 1 or 4 h p.i., read-out: uptake in stomach): 5 to 8 %ID/g

Structure (SMILES): CCCC[C@@H](C(=O)N[C@@H](CC(=O)O)C(=O)N[C@@H](Cc1ccc2ccccc2c1)C(N)=O)N(C)C(=O)[C@H](Cc1c[nH]c2ccccc12)NC(=O)CNC(=O)[C@H](Cc1ccc(O)cc1)NC(=O)[C@H](C)NC(=O)[C@@H](CCC(=O)O)NC(=O)CN1CCN(CC(=O)O)CCN(CC(=O)O)CCN(CC(=O)O)CC1 [DOTA-MGS5-2, DOTA-DGlu-Ala-Tyr-Gly-Trp-(N-Me)Nle-Asp-2Nal-NH2]
IC50 (human CCK2R; [5]): 1.6 ± 0.4 nM

Structure (SMILES): CCCC[C@@H](C(=O)N[C@@H](CC(=O)O)C(=O)N[C@@H](Cc1cccc2ccccc12)C(N)=O)N(C)C(=O)[C@H](Cc1c[nH]c2ccccc12)NC(=O)CNC(=O)[C@H](Cc1ccc(O)cc1)NC(=O)[C@@H]1CCCN1C(=O)[C@@H](CCC(=O)O)NC(=O)CN1CCN(CC(=O)O)CCN(CC(=O)O)CCN(CC(=O)O)CC1 [DOTA-MGS8, DOTA-DGlu-Pro-Tyr-Gly-Trp-(N-Me)Nle-Asp-1Nal-NH2] ({DOTA}-[dE]PYGW[NMeNle]D[1Nal]-NH2)
IC50 (human CCK2R; [5]): 1.6 ± 0.2 nM

Structure (SMILES): CCCC[C@@H](C(=O)N[C@@H](CC(=O)O)C(=O)N[C@@H](Cc1cccc2ccccc12)C(N)=O)N(C)C(=O)[C@H](Cc1c[nH]c2ccccc12)NC(=O)CNC(=O)[C@@H]1CCCN1C(=O)[C@H](Cc1ccc(O)cc1)NC(=O)[C@@H](CCC(=O)O)NC(=O)CN1CCN(CC(=O)O)CCN(CC(=O)O)CCN(CC(=O)O)CC1 [DOTA-MGS10, DOTA-DGlu-Tyr-Pro-Gly-Trp-(N-Me)Nle-Asp-1Nal-NH2] ({DOTA}-[dE]YPGW[NMeNle]D[1Nal]-NH2)
IC50 (human CCK2R; [5]): 0.9 ± 0.2 nM

Structure (SMILES): CSCC[C@H](NC(=O)[C@H](Cc1c[nH]c2ccccc12)NC(=O)CNC(=O)[C@H](Cc1ccc(O)cc1)NC(=O)[C@H](C)NC(=O)[C@@H](CCC(=O)O)NC(=O)[C@@H](CCC(=O)O)NC(=O)[C@@H](CCC(=O)O)NC(=O)[C@@H](CCC(=O)O)NC(=O)[C@@H](CCC(=O)O)NC(=O)[C@@H](CCC(=O)O)NC(=O)CN1CCN(CC(=O)O)CCN(CC(=O)O)CCN(CC(=O)O)CC1)C(=O)N[C@@H](CC(=O)O)C(=O)N[C@@H](Cc1ccccc1)C(N)=O [PP-F11, reference compound]
IC50 (human CCK2R): 0.4 ± 0.1 nM

The next lines start with results.

kidney uptake ([2]; 1 or 4 h p.i. (111In-labelled series: 4 h p.i.)): 8 % IA/g
uptake in pancreas [2, 7]: 7 % IA/g
uptake in stomach [2, 7]: 13 % IA/g
Structure (SMILES): CCCC[C@@H](C(=O)N[C@@H](CC(=O)O)C(=O)N[C@@H](Cc1cccc2ccccc12)C(N)=O)N(C)C(=O)[C@H](Cc1c[nH]c2ccccc12)NC(=O)CNC(=O)[C@H](Cc1ccc(O)cc1)NC(=O)[C@H](C)NC(=O)[C@@H](CCC(=O)O)NC(=O)c1ccc(NN)nc1 [^99mTc-HYNIC-MGS5, metal not drawn]

fraction unbound at 4 h, 500 pmol/mL (serum proteins): 0.899
fraction unbound at 24 h, 500 pmol/mL (serum proteins): 0.938
Percentage of radioligand bound to serum proteins after 24 h incubation (serum proteins): < 10%
Structure (SMILES): CSCC[C@H](NC(=O)[C@H](Cc1c[nH]c2ccccc12)NC(=O)CNC(=O)[C@H](Cc1ccc(O)cc1)NC(=O)[C@H](C)NC(=O)[C@@H](CCC(=O)O)NC(=O)CN1CCN(CC(=O)O)CCN(CC(=O)O)CCN(CC(=O)O)CC1)C(=O)N[C@@H](CC(=O)O)C(=O)N[C@@H](Cc1ccccc1)C(N)=O [^111In-DOTA-MG11, metal not drawn, reference compound] ({DOTA}-[dE]AYGWMDF-NH2)
intact radiopeptide 5 min after injection [3]: 5%

fraction unbound at 4 h, 500 pmol/mL (serum proteins): 0.734
fraction unbound at 24 h, 500 pmol/mL (serum proteins): 0.722
Percentage of radioligand bound to serum proteins after 24 h incubation (serum proteins): ~30%
tissue uptake at 4 h ([2]; female, athymic BALB/c nude, mouse, intestine and liver, iv, 0.02 nmol peptidomimetic, total radioactivity, 4 h p.i.): ~2 %ID/g
tissue uptake [2, 6]: 20.7 ± 4.4 %ID/g
intact radioligand present in the blood at 10 min p.i. [4]: 93.9±1.2%
Structure (SMILES): CCCC[C@@H](C(=O)N[C@@H](CC(=O)O)C(=O)N[C@@H](Cc1cccc2ccccc12)C(N)=O)N(C)C(=O)[C@H](Cc1c[nH]c2ccccc12)NC(=O)CNC(=O)[C@H](Cc1ccc(O)cc1)NC(=O)[C@H](C)NC(=O)[C@@H](CCCCN)NC(=O)CN1CCN(CC(=O)O)CCN(CC(=O)O)CCN(CC(=O)O)CC1 [^111In-DOTA-MGS9, metal not drawn] ({DOTA}-[dK]AYGW[NMeNle]D[1Nal]-NH2)
